# Data from patent EP1232756A1, “DRUGS, DRINKS OR FOODS” (Takara Shuzo Co, Ltd., priority 1999, dated 2001).
# Columns and labels:
# [1] = target: T1, ER(α) (estrogen receptor α) (Homo sapiens, UniProt P03372); assay: Binding to estrogen receptor, fluorescence polarization competition (FP Screen-for-Competitors kit, ER-α) (Example 7); conditions: concentration inhibiting 50% of the binding of the ES1-ER(α) complex by competing with ES1; 1 hour at room temperature
# T1 construct: purchased PanVera V2577
# T1 sequence (P03372 1-595): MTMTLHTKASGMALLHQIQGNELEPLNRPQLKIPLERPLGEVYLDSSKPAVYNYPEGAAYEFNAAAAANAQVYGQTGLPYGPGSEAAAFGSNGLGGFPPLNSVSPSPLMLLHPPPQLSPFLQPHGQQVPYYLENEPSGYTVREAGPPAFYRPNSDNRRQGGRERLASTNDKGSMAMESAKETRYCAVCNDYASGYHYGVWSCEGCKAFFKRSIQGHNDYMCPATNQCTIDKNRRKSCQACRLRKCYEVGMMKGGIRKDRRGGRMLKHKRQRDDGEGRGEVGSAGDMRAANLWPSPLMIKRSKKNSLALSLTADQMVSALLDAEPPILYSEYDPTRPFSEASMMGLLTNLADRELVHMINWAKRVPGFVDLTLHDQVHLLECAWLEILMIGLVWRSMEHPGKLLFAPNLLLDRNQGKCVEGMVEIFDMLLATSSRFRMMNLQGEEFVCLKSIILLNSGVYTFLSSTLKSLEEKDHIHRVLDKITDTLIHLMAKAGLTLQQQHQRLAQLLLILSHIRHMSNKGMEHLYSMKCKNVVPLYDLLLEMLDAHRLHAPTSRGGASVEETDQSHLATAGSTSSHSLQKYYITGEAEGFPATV
# Method: Bindings of various gallic acid derivatives to estrogen receptor were tested using FP Screen-for-Competitors kit, ER-α, high sensitivity kit (V2577: PanVera). The tests were carried out basically according to the procedure as described in the manual attached to the kit. One of various gallic acid derivatives (n-octyl gallate (gallic acid n-octyl ester), n-dodecyl gallate (gallic acid n-dodecyl ester) and n-cetyl gallate (gallic acid n-hexadecyl ester)) was dissolved in DMSO and serially diluted to prepare diluted samples (0.5 M - 0.0000000005 M). 49 µL of Screening buffer attached to the kit was added to 1 µL of one of the diluted samples and stirred thoroughly. 50 µL of 10 nM-15 nM:ES1-ER(α) complex (a complex of ES1 (a fluorescent ligand that binds to ER) and ER(α) (estrogen receptor α)) attached to the kit was added thereto, resulting in the total volume of 100 µL. After allowing to stand for 1 hour at room temperature, fluorescence polarization was measured at an excitation wavelength of 360 nm and an emission wavelength of 535 nm using Full-Range BEACON 2000 (PanVera).
# female SD rat [2] = assay: Anti-estrogenic activity of n-octyl gallate or n-cetyl gallate against subcutaneously administered BisA, rat uterine weight (Example 11); type: in vivo; conditions: for Ratio: vs control (100%)
# Method: A 17-days old female SD rat (Japan SLC) was purchased together with its mother, weaned at 20 days of age, and subjected to experiments from the next day. n-Octyl gallate or n-cetyl gallate (both from Tokyo Kasei Kogyo) was dissolved in a small volume of ethanol. Peanut oil was added thereto to result in a final ethanol concentration of 5%. The resulting mixture was orally administered to the 21-days old female SD rat for three successive days. The uterine removed on the day after the last administration day was weighed. Peanut oil containing 5% ethanol was used for a vehicle administration group. BisA was dissolved in a small volume of ethanol. Peanut oil was added thereto to result in a final ethanol concentration of 5%. The mixture was subcutaneously administered.
# female SD rat [3] = assay: Anti-estrogenic activity of solution of EGCG in ethanol against 4-nonylphenol, rat uterine weight (Example 3); type: in vivo; conditions: NP 50 mg/kg oral alone
# Method: A 16-days old female SD rat (Japan SLC) was purchased together with its mother, weaned at 19 days of age, and subjected to experiments from the next day.
# 4-Nonylphenol (hereinafter referred to as NP) was weighed such that it would be administered at 50 mg/kg and diluted by adding peanut oil thereto. The resulting mixture was orally administered for three successive days. The uterine removed on the day after the third administration day was weighed. EGCG was dissolved by adding ethanol and water was then added thereto to adjust the final ethanol concentration to 10%. The solution was orally administered 90 minutes before the administration of NP.
# female SD rat [4] = assay: Anti-estrogenic activity of n-octyl gallate against NP, rat uterine weight (Example 10); type: in vivo; conditions: NP 50 mg/kg oral + vehicle
# Method: (§1) A 16-days old female SD rat (Japan SLC) was purchased together with its mother, weaned at 19 days of age, and subjected to experiments from the next day. n-Octyl gallate (Tokyo Kasei Kogyo) was dissolved in a small volume of ethanol. Peanut oil was added thereto to result in a final ethanol concentration of 5%. The resulting mixture was orally administered to the 20-days old female SD rat for three successive days. The uterine removed on the day after the last administration day was weighed. Peanut oil containing 5% ethanol was used for a vehicle administration group. NP weighed such that it would be administered at 50 mg/kg was diluted by adding peanut oil. It was orally administered 1.5 hours after the administration of n-octyl gallate.
# female SD rat [5] = assay: Agonistic (estrogenic) activity: immature rat uterine weight (Example 1(2)); type: in vivo; conditions: substance alone
# Method: A 17-days old female SD rat (purchased from Japan SLC) was received together with its mother, weaned at 20 days of age, and subjected to experiments from the next day. Five ml per kg body weight of EGCG (Sigma) or bisphenol-A (hereinafter referred to as BisA, Tokyo Kasei Kogyo) suspended in peanut oil (Nacalai Tesque) was administered orally and forcibly. Peanut oil was administered to a control rat in a similar manner. Administration was carried out once a day for three successive days. The uterine removed 24 hours after the last administration was weighed. BisA or EGCG (80 or 800 mg/kg) was administered. […]
# female SD rat [6] = assay: Antagonistic (anti-estrogenic) activity of EGCG against bisphenol-A, immature rat uterine weight (Example 1(3)); type: in vivo; conditions: BisA 800 mg/kg oral alone
# Method: A 17-days old female SD rat (purchased from Japan SLC) was received together with its mother, weaned at 20 days of age, and subjected to experiments from the next day. Five ml per kg body weight of EGCG (Sigma) or bisphenol-A (hereinafter referred to as BisA, Tokyo Kasei Kogyo) suspended in peanut oil (Nacalai Tesque) was administered orally and forcibly. Peanut oil was administered to a control rat in a similar manner. Administration was carried out once a day for three successive days. The uterine removed 24 hours after the last administration was weighed. BisA (800 mg/kg) and EGCG (800 mg/kg) were administered at the same time.
# female SD rat [7] = assay: Anti-estrogenic activity of solution of EGCG in ethanol against bisphenol-A, rat uterine weight (Example 2); type: in vivo; conditions: for Uterine weight: mean ± standard error; for Ratio: vs control (100%)
# Method: A 17-days old female SD rat (purchased from Japan SLC) was received together with its mother, weaned at 20 days of age, and subjected to experiments from the next day. BisA was weighed such that it would be administered at 200 or 40 mg/kg and dissolved in a small volume of ethanol. Peanut oil was added thereto to result in a final ethanol concentration of 5%. The resulting mixture was orally administered for three successive days. The uterine removed on the next day was weighed. EGCG was dissolved by adding ethanol and water was then added thereto to adjust the final ethanol concentration to 10%. The solution was orally administered on the day before the administration of BisA and 30 minutes before each of the successive administrations of BisA.
# female SD rat [8] = assay: Effect of ethanol concentration on anti-estrogenic activity of EGCG, rat uterine weight (Example 4); type: in vivo; conditions: BisA 40 mg/kg subcutaneous alone
# Method: (§2) A 16-days old female SD rat (Japan SLC) was purchased together with its mother, weaned at 19 days of age, and subjected to experiments from the next day. BisA was weighed such that it would be administered at 40 mg/kg and dissolved in a small volume of ethanol. Peanut oil was added thereto to result in a final ethanol concentration of 5%. The resulting mixture was subcutaneously administered for three successive days. The uterine removed on the day after the third administration day was weighed. EGCG (200 mg/kg) was dissolved by adding ethanol and water was then added thereto to adjust the final ethanol concentration to 10, 5, 1, 0.5 or 0%. The solution was orally administered 90 minutes before the administration of BisA.
# female SD rat [9] = assay: Anti-estrogenic activity of solution of EGCG in ethanol, subcutaneous BisA, rat uterine weight (Example 5); type: in vivo; conditions: BisA 40 mg/kg subcutaneous alone
# Method: as §2, with “10” for “10, 5, 1, 0.5”, “30” for “90”
# female SD rat [10] = assay: Dose dependency of anti-estrogenic activity of solution of EGCG in ethanol, rat uterine weight (Example 6); type: in vivo; conditions: for Ratio: vs control (100%)
# Method: as §2, with “subcutaneously or orally” for “subcutaneously”, “EGCG” for “EGCG (200 mg/kg)”, “10%.” for “10, 5, 1, 0.5 or 0%.”, “30” for “90”
# [11] = test system: human breast cancer-derived MCF-7 cells; assay: E-SCREEN assay, proliferation of cultured cells, MTT method (Example 8); type: cell-based; conditions: BisA alone
# Method: A test for proliferation of cultured cells was carried out according to a method called the E-SCREEN assay as described in Ana M. Soto et al. (Environ. Health Perspect. 103:113-122(1995)). Briefly, 4.0 x 10^3 of human breast cancer-derived MCF-7 cells in a volume of 100 µL were seeded into each well of a 96-well plate. The plate was incubated overnight. BisA or a combination of BisA and n-octyl gallate was then added thereto. A well without the addition was used as a control. The cells were further cultured for 4 days in a medium, Dulbecco's modified Eagle medium without Phenol Red supplemented with 5% FCS treated with activated carbon-dextran. The MTT method was used to measured the cell numbers.
# female SD rat [12] = assay: Anti-estrogenic activity of n-octyl gallate against BisA, rat uterine weight (Example 9); type: in vivo; conditions: BisA 40 mg/kg oral + vehicle
# Method: as §1, with “BisA” for “NP weighed such that it would be administered at 50 mg/kg”, “dissolved in a small volume of ethanol. Peanut oil was added thereto to result in a final ethanol concentration of 5%.” for “diluted by adding peanut oil.”
compound,measurement,setting,value
"CCCCCCCCCCCCCCCCOC(=O)c1cc(O)c(O)c(O)c1 [n-cetyl gallate, gallic acid n-hexadecyl ester]",IC50,[1],47.6 nM
same,Uterine weight,"female SD rat [2]; BisA 40 mg/kg subcutaneous + n-cetyl gallate 1 mg/kg oral, 3 days",45.1 ± 2.3 mg
same,Uterine weight,"female SD rat [2]; BisA 40 mg/kg subcutaneous + n-cetyl gallate 5 mg/kg oral, 3 days",43.1 ± 2.0 mg
same,Ratio,female SD rat [2]; BisA 40 mg/kg subcutaneous + n-cetyl gallate 1 mg/kg oral,109%
same,Ratio,female SD rat [2]; BisA 40 mg/kg subcutaneous + n-cetyl gallate 5 mg/kg oral,104%
"CCCCCCCCCc1ccc(O)cc1 [NP, 4-Nonylphenol, reference compound]",Uterine weight,female SD rat [3]; mean ± standard error,44.4 ± 3.2 mg
same,Ratio,female SD rat [3]; vs control (100%),144%
same,Uterine weight,female SD rat [4]; mean ± standard error,47.6 ± 2.3 mg
same,Ratio,female SD rat [4]; vs control (100%),144%
"CCCCCCCCCCCCOC(=O)c1cc(O)c(O)c(O)c1 [n-Dodecyl gallate, gallic acid n-dodecyl ester]",IC50,[1],311 nM
"CC(C)(c1ccc(O)cc1)c1ccc(O)cc1 [BisA, bisphenol-A, reference compound]",Uterine weight,"female SD rat [5]; 800 mg/kg oral in peanut oil, once a day for 3 days, mean ± standard error",55.2 ± 2.3 mg
same,Ratio,"female SD rat [5]; uterine weight vs control group (100%), 800 mg/kg oral, 3 days",137%
same,Uterine weight,female SD rat [6]; mean ± standard error,54.7 ± 5.5 mg
same,Ratio,female SD rat [6]; vs control (100%),147%
same,Uterine weight,female SD rat [7]; BisA 40 mg/kg oral alone,64.5 ± 9.2 mg
same,Uterine weight,female SD rat [7]; BisA 200 mg/kg oral alone,57.7 ± 5.2 mg
same,Ratio,"female SD rat [7]; BisA 40 mg/kg, oral, alone",149%
same,Ratio,female SD rat [7]; BisA 200 mg/kg oral alone,133%
same,Uterine weight,female SD rat [8]; mean ± standard error,49.9 ± 2.1 mg
same,Ratio,female SD rat [8]; vs control (100%),186%
same,Uterine weight,female SD rat [9]; mean ± standard error,50.0 ± 2.7 mg
same,Ratio,female SD rat [9]; vs control (100%),162%
same,Uterine weight,"female SD rat [10]; BisA 40 mg/kg subcutaneous alone, mean ± standard error",52.2 ± 2.9 mg
same,Ratio,female SD rat [10]; BisA 40 mg/kg subcutaneous alone,160%
same,Ratio,"female SD rat [10]; BisA 40 mg/kg, oral, alone",140%
same,number of the cells proliferated relative to the control,[11]; MCF-7,1.8 fold
same,Relative rate of increase in cell number,"[11]; MCF-7, 4 days culture, control = 100",180%
same,Uterine weight,female SD rat [12]; mean ± standard error,48.9 ± 2.1 mg
same,Ratio,female SD rat [12]; vs control (100%),161%
same,Uterine weight,"female SD rat [2]; BisA 40 mg/kg subcutaneous + vehicle, mean ± standard error",59.7 ± 2.7 mg
same,Ratio,female SD rat [2]; BisA 40 mg/kg subcutaneous + vehicle,145%
